What was measured:
Assay type in all cases: biochemical
YcgR = biological target: T1, YcgR (Escherichia coli, UniProt P76010); assay: DRaCALA, MALDI-TOF MS read-out; settings: cell lysate; 10 mM Tris pH 8.0, 100 mM NaCl, 5 mM MgCl2; room temperature
T1 construct: cloned in pBAD30, expressed in E. coli Top10, whole cell lysate
T1 sequence (P76010 1-244): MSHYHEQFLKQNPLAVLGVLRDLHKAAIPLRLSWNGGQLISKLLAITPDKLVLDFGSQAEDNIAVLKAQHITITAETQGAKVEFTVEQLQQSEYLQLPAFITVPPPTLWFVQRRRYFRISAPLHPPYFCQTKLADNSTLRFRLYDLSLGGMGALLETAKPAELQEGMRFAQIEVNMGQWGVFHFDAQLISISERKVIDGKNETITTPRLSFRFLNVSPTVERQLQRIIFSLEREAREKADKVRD

YciRFec101 = biological target: T2, YciRFec101 (Escherichia coli, UniProt P77334); assay: DRaCALA, MALDI-TOF MS and […] read-out; settings: cell lysate; 10 mM Tris pH 8.0, 100 mM NaCl, 5 mM MgCl2 (MALDI) or MgSO4 (32P); room temperature; labelled compound in 32P assay
T2 construct: gene pdeR; full-length GGDEF/EAL protein, cloned in pBAD30, expressed in E. coli Top10, whole cell lysate
T2 sequence (P77334 whole entry): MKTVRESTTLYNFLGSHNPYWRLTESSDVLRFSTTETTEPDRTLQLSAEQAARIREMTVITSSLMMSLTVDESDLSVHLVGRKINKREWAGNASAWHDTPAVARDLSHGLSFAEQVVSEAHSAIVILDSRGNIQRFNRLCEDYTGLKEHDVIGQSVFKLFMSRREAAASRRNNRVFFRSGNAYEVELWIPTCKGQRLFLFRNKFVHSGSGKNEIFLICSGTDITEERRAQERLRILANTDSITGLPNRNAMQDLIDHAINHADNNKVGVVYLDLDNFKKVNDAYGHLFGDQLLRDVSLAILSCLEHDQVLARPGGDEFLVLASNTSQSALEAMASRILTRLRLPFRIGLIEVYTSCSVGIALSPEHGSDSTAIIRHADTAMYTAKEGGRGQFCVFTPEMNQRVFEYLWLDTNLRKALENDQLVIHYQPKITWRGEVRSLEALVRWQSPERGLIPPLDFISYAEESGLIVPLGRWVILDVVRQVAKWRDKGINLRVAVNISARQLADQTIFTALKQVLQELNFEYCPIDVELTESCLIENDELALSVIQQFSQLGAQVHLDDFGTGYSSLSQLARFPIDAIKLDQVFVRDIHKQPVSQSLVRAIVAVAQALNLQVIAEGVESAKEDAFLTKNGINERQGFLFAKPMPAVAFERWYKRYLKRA

BcsE = BcsE (Escherichia coli, UniProt P37657); assay: DRaCALA, MALDI-TOF MS read-out; settings: cell lysate; 10 mM Tris pH 8.0, 100 mM NaCl, 5 mM MgCl2; room temperature
Chain of BcsE (P37657 whole entry): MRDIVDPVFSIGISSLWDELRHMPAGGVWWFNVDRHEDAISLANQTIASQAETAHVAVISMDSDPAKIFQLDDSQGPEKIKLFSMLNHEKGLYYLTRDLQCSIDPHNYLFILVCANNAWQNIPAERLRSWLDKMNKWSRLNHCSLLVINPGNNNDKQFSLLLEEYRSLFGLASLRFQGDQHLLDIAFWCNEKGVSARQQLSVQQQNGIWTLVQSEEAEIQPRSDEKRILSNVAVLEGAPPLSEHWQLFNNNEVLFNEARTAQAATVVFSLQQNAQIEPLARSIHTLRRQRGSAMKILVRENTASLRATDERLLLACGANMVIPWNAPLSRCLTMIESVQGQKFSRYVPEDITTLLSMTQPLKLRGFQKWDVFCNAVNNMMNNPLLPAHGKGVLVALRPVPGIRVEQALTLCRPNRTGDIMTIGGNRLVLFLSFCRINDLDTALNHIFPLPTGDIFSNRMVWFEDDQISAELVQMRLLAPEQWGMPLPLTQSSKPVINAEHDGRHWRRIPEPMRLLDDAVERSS

Compound: Nc1nc2c(ncn2[C@@H]2O[C@@H]3COP(=O)(O)O[C@H]4[C@@H](O)[C@H](n5cnc6c(=O)[nH]c(N)nc65)O[C@@H]4COP(=O)(O)O[C@H]3[C@H]2O)c(=O)[nH]1 [cyclic di-GMP]
- DRaCALA, MALDI-TOF MS read-out (YcgR): cell lysates expressing the cyclic di‐GMP receptors and incubated with cyclic di‐GMP showed higher counts
- DRaCALA, MALDI-TOF MS and 32P read-out (YciRFec101): YciRFec101 showed increased binding to c‐di‐GMP, while mut1 and mut2 were near vector control
- DRaCALA, MALDI-TOF MS read-out (BcsE): cell lysates expressing the cyclic di‐GMP receptors and incubated with cyclic di‐GMP showed higher counts
